Data: patent US10265329B2, “Altering steroid metabolism for treatment of steroid-dependent disease” (THE CLEVELAND CLINIC FOUNDATION, priority 2015, dated 2019)

Legend:
[1] = tested on: AR chromatin occupancy on PSA, TMPRSS2 and FKBP5 regulatory elements; experiment: AR chromatin occupancy ChIP assay in LNCaP cells; type: cell-based, human; conditions: 3 h
Description: LNCaP cells were serum-starved for at least 48 h and treated with indicated drugs and DHT for 3 h. A ChIP assay was performed with an anti-AR antibody (Santa Cruz, sc-816) as described previously. Li et al., Proc Natl Acad Sci USA. 108:3116-3123 (2011). All of the precipitated DNA samples were quantified by qPCR and normalized to input DNA. All ChIP experiments were performed at least three times. Primers used for ChIP experiments are from experiments previously described. Evaul et al., Endocrinology, 151:3514-3520 (2010).

VCaP xenografts = experiment: VCaP xenograft progression in orchiectomized mice with DHEA pellet; type: in vivo; conditions: 0.5 mmol/kg/d i.p.; compared to the Abi acetate group, P=0.011
Description: Male NSG mice, 6 to 8 weeks of age were obtained from the Cleveland Clinic Biological Resources Unit facility. All mouse studies were conducted under a protocol approved by the Cleveland Clinic Institutional Animal Care and Use Committee. Sample size was determined based on our prior studies of steroidogenesis inhibition in xenograft models of CRPC. Chang et al., Proc Natl Acad Sci USA., 108:13728-13733 (2011). Criteria for progression were determined based on similar criteria that are utilized for clinical progression. Mice were surgically orchiectomized and implanted with a 5 mg 90-day sustained-release DHEA pellet (Innovative Research of America) to mimic CRPC in the context of human adrenal physiology. Two days later, 10^7 VCaP or C4-2 cells were injected subcutaneously with matrigel. Once tumors reached 300 mm^3 (length×width×height×0.52), mice were arbitrarily (but not strictly randomized) assigned to vehicle (n=9 or 10 mice for VCaP and C4-2 respectively), Abi acetate (n=10 mice for both cell lines), D4A (n=10 mice for both cell lines) or enzalutamide (n=11 for C4-2) treatment groups. […] Tumor volume was measured daily, and time to increase in tumor volume by 20% was determined. […] The significance of the difference between treatment groups was assessed by Kaplan-Meier survival analysis using a log-rank test in SigmaStat 3.5.

[2] = Serum deoxycorticosterone at end of xenograft study; type: in vivo; conditions: serum from treated mice at the end of the xenograft study
Description: Mouse serum collection, derivatization and extraction. […] Louis, Mo.). Steroids were extracted with methyl tert-butyl ether (Sigma Aldrich, St. Louis, Mo.), evaporated under a stream of nitrogen gas and reconstituted in methanol:water (50:50) prior to mass spectrometry analysis. Mouse serum analysis. Samples were analyzed on a Thermo TSQ Quantiva-Prelude SPLC system (Thermo Scientific, Waltham, Mass.) with Aria MX 2.1 and Tracefinder 3.2.368.22 software for instrument controls and quantitation. […] Steroids were ionized by electrospray ionization and in positive ion mode. […] Concentrations were determined using stable isotope dilution analysis.

[3] = Abi metabolites in sera of patients with CRPC treated with Abi acetate; type: in vivo, human; conditions: patients undergoing treatment with Abi acetate
Description: Patient serum collection and drug extraction. Twelve patients with CRPC undergoing treatment with Abi acetate were consented under an Institutional Review Board—approved protocol (Case 7813). Blood was collected using Vacutainer Plus serum blood collection tubes (#BD367814, Becton Dickenson, Franklin Lakes, N.J.). Blood was collected between 2 and 14 hours after the 1000 mg daily dose of Abi acetate was administered. Blood was allowed to clot and tubes were centrifuged at 2500 RPM for 10 minutes. Serum aliquots were frozen at −80° C. until processing. Drug metabolites and internal standard (d4-cortisol, CDN isotopes Pointe-Claire, Quebec Canada) were extracted from 200 μL of patient serum with methyl tert-butyl ether (Sigma Aldrich, St. Louis, Mo.), evaporated under a stream of nitrogen gas and reconstituted in methanol prior to mass spectrometry analysis.
Patient serum analysis. Blood was obtained from prostate cancer patients with consent under a protocol approved by the Cleveland Clinic Institutional Review Board. Samples were analyzed on a ultra high-performance liquid chromatography station (Shimadzu, Kyoto, Japan) with a DGU-20A3R degasser, 2 LC-30AD pumps, a SIL-30AC autosampler, a CTO-10A column oven and a CBM-20A system controller in tandem with a QTRAP 5500 mass spectrometer (AB Sciex, Framingham, Mass.). […]

C[C@]12CCC(=O)C=C1CC[C@@H]1[C@@H]2CC[C@]2(C)C(c3cccnc3)=CC[C@@H]12 [Compound D4A, 17-(3-Pyridyl)androsta-4,16-dien-3-one]
inhibition of DHT-induced AR chromatin occupancy [1]: superior to Abi and somewhat lower than enzalutamide | time to tumor progression (>20% increase in tumor volume) (VCaP xenografts): significantly delayed | serum deoxycorticosterone [2]: no detectable increase | detection in sera of patients with CRPC [3]: detectable
